# Assay results taken from patent publication US20260240820A1, “METHOD FOR CONTROLLING MEMBRANE POTENTIAL-DEPENDENT ION CHANNEL THROUGH TYPE I TASTE RECEPTORS (T1RS)” (ION CHAT RESEARCH CORPORATE, priority 2022, published 2026).
# Where “and” joins values, the source holds several entries; their conditions need not be identical. Identical values can stand only once. Entries after “also recorded” stand apart in the source; their conditions may differ. Like-named read-outs stand apart in the source and are kept apart here.
# What was measured:
# VGSC = assay: Patch-clamp recording of VGSC current, cell type not specified or several cell types (summary statements); assay type: cell-based, human; settings: for IC50: read-out: IC50 for inhibition of VGSC; for Enhancement of VGSC current at high(er) concentration: high concentration (desensitization)
# SH-SY5Y cells [1] = assay: Cell morphology observation, SH-SY5Y cells; assay type: cell-based, human; settings: 120 μM; undifferentiated SH-SY5Y cells
# Nav1.6 [2] = assay: Patch-clamp recording of VGSC current in HEK (Nav1.6) cells; assay type: cell-based, human; settings: HEK Nav1.6, prepulse −80 mV; read-out: IC50 (VGSC inhibition)
# Nav1.5 = assay: Patch-clamp (voltage clamp) recording of VGSC current in HEK cells stably expressing Nav1.5; settings: for IC50: read-out: IC50 (VGSC inhibition)
# [3] = tested on: VGSC of SH-SY5Y cells (Nav1.7, Nav1.2, Nav1.3); assay: Patch-clamp recording of VGSC current in differentiated SH-SY5Y cells; assay type: cell-based, human; settings: 1-6 μM (2 μM in FIG. 4); listed as Aβ25-35 peptide
# Excerpt: Furthermore, the inventors focused on the relationship between taste receptors, particularly the sweet or umami receptors containing the T1R3 subunit, which are widely expressed in the brain and nervous system, including the hippocampus and cortex. They used human neuroblastoma cells (SH-SY5Y) that functionally express Nav1.2, Nav1.3, and Nav1.7 (as reported in non-patent literature 8), as well as HEK cells stably expressing Nav1.5 (with endogenous expression of T1R1, T1R2, and T1R3). They observed the effects of taste stimuli on sodium channel activation. By reducing the expression of T1R1 and T1R3 genes using silencing vectors, they confirmed that the effects on sodium channel currents induced by taste stimuli act through taste receptor GPCRs.
# The SH-SY5Y cell culture medium was prepared by mixing DMEM (Sigma-Aldrich) and F-12 (Sigma-Aldrich) in equal proportions. To induce neuronal-like differentiation, the medium contained 1% FBS (BioWest), 5% 40 mM L-Glutamine (Fuji Film), and 1% MEM non-essential amino acids (Wako Pure Chemical Industries). During differentiation, SH-SY5Y cells were cultured for at least 5 days with the addition of 10 μM/ml retinoic acid (Fuji Film). In this document, “SH-SY5Y cells” refer to the SH-SY5Y cell line differentiated into neuronal-like cells.
# Nav1.6 [4] = assay: Patch-clamp recording of VGSC current in HEK (Nav1.6) cells; assay type: cell-based, human
# Excerpt: The cells used in the previous (18-1) experiment were cardiac-type VGSC cells. In this experiment, HEK (Nav1.1) and HEK (Nav1.6) cells, which are considered neuronal VGSC cells, were created. The effects of four peptides—Aβ25-35, Aβ1-38, Aβ1-40, and Aβ1-42—were examined using the same experimental protocol as in (18-1). […]
# Nav1.1 = assay: Patch-clamp recording of VGSC current in HEK (Nav1.1) cells; assay type: cell-based, human
# Excerpt: The cells used in the previous (18-1) experiment were cardiac-type VGSC cells. In this experiment, HEK (Nav1.1) and HEK (Nav1.6) cells, which are considered neuronal VGSC cells, were created. The effects of four peptides—Aβ25-35, Aβ1-38, Aβ1-40, and Aβ1-42—were examined using the same experimental protocol as in (18-1).
# [5] = tested on: Nav1.5 in T1R3-silenced HEK cells; assay: VGSC current in HEK Nav1.5 cells with silenced T1R3; assay type: cell-based, human
# Excerpt: The miRNAs Oligo (Thermofisher) used for silencing were annealed to form double-stranded DNA, which was then linked to the miR RNAi Expression Vector using T4 DNA ligase to create the knockdown vector. Specifically, the procedure followed the miR RNAi Expression Vector Kit manual (BLOCK-i™ Pol II miR RNAi Expression Vector Kit with EmGFP (Catalog number: K493600)).
# Since Aβ25-35 peptide produced similar effects (enhancing VGSC activity, lowering the excitability threshold) as glutamine, it was considered that Aβ25-35 peptide might also act on T1R2/T1R3 receptors like glutamine. Therefore, in this implementation example, we used HEK-Nav1.5 cells with silenced T1R3 and compared the effect of Aβ25-35 peptide on VGSC with that in control HEK-Nav1.5 cells.
# To strengthen these findings, we conducted similar experiments using HEK Nav1.5 cells in which T1R3 expression was silenced (FIG. 22). We measured VGSC currents in T1R3-silenced HEK Nav1.5 cells, applying stimuli every 8 seconds.
# [6] = tested on: endogenous T1R GPCR of HEK cells; assay: Intracellular calcium (Cal-520) in HEK cells stably expressing Nav1.1 with endogenous T1R GPCR; assay type: cell-based, human; settings: 10 nM then 20 nM for Aβ1-40 and Aβ1-42
# Protocol: Specifically, experiments were conducted as follows using HEK cells stably expressing Nav1.1 (FIG. 45). The calcium-sensitive reagent (Cal-520, AAT Bioquest) was incubated at 37° C. for 60 minutes, followed by incubation at room temperature for 30 minutes, and then changes in intracellular calcium were measured using a fluorescence microscope. […] Initially, 10 nM, followed by 20 nM of Aβ1-40 was applied after 5 minutes (arrow). […] A total of 6 cell groups from two independent experiments were measured, averaged by the maximum fluorescence response value, and the mean and standard error (stderr) were calculated and plotted. […] 10 nM, followed by 20 nM of Aβ1-42 was applied after 5 minutes (arrow). […] A total of 12 cell groups from two independent experiments were measured, averaged by the minimum fluorescence response value, and the mean and standard error (stderr) were calculated and plotted. Similar to the experimental results using the patch-clamp method when Aβ peptide was applied to Nav1.5, it was confirmed from intracellular calcium measurements that the effects of Aβ1-40 and Aβ1-42 were different.
# HEK Nav1.5 cells = assay: GFP-Tubulin / GFP-Actin cytoskeleton observation in HEK Nav1.5 cells; assay type: cell-based, human; settings: MSG 5 mM
# Excerpt: To observe the impact of cinacalcet and Aβ1-42 peptide on microfilament (actin) fiber structures, we labeled cells with GFP-Actin (FIG. 34). […] This experimental approach, using GFP-Tubulin, GFP-Actin, or other fluorescent proteins to label microtubules and microfilaments, can be used to screen compounds that regulate the activity of ion channels and neuronal function-controlling proteins. Additionally, simultaneous labeling of tubulin and actin can be achieved using fluorescent antibodies or phalloidin after cell fixation.
# SH-SY5Y cells [7] = assay: Action potentials of differentiated SH-SY5Y cells (current clamp, NanoCharge method); assay type: cell-based, human; settings: listed as Aβ25-35 peptide
# Protocol: Next, using the current-clamp mode, we applied current stimulation and recorded action potentials from differentiated SH-SY5Y cells (FIG. 5, from the lower to the upper part of the figure, rectangular wave current stimulation was applied. The current strengths were 6, 8, 10, and 12 pA from the bottom). Before the application of Aβ25-35 peptide, action potentials were not induced at stimulation currents of 6 pA and 8 pA, but action potentials were recorded at stronger stimulation currents (10 pA and 12 pA).
# By using magnetic conductive nanoparticles as intracellular electrodes for measuring the neuronal action potentials of differentiated SH-SY5Y cells, and combining this with a capacitive potential detection device to measure changes in intracellular potentials, the spontaneous action potentials of these cells were measured. Specifically, 6.25 nM of the T1R3 agonist Aβ25-35 peptide was added to 400 μl of SH-SY5Y cell culture medium, and the spontaneous action potentials before and after the addition of Aβ25-35 peptide were measured to observe the changes.
# This membrane potential recording method focuses on the magnetic conductive nanoparticles penetrating the cell membrane, the cover glass on which the cells are seeded, and the electrode placed below the cover glass forming a capacitor. The charge (Q) charged to this capacitor is recorded as the membrane potential in terms of charge rather than voltage changes. Since the charge (Q) is obtained from Q=CV, where C is the capacitance and V is the potential, the charge changes measured here are influenced by the capacitor (C) (FIG. 43).
substance,measurement,setting,value
Aspartame,Effects on VGSCs,VGSC,Inhibition of VGSCs
same,Inhibition of VGSC,VGSC; 50 μM,> 90%. Inhibition is due to a parallel shift
same,IC50,VGSC; listed as aspartame,15 to 17 µM and < 17 µM
same,IC50,VGSC,< 50 µM
same,Change in cell morphology,SH-SY5Y cells [1],contracted cell morphology; also recorded: cell contraction
same,IC50,Nav1.6 [2],17 µM
same,IC50,Nav1.5; prepulse −70 mV,15.3 µM
same,IC50,Nav1.5; prepulse −100 mV,49.7 µM
GSNKGAIIGLM [Aβ25-35],Effect on VGSC inward current,[3],enhancement of transient downward VGSC current; also recorded: enhancement of VGSC inward current
same,Effect on VGSC current,Nav1.6 [4],VGSC enhancement
same,Effect on VGSC current,Nav1.1,VGSC enhancement
same,Effects on VGSCs,VGSC,Enhancement of VGSC
same,Effect on VGSC current in the presence of colchicine,"VGSC; 12.5 nM, colchicine 2.25 μM",inhibits Aβ25-35-induced enhancement; also recorded: no further enhancement of VGSC current was observed
same,Effect on VGSC current,VGSC; 125 nM to 2 μM,Ab25-35 (125 nM to 2 μM) enhances
same,Effect on VGSC current in the presence of Latrunculin A,"VGSC; 12.6 μM LatA, Aβ25-35 printed 12.5 μM",VGSC amplification; also recorded: doubled
same,Enhancement of VGSC current at high(er) concentration,VGSC,VGSC current but not at higher
same,Enhancement of VGSC current at high(er) concentration,VGSC; listed as Ab25-35,Ab25-35 is suppressed
same,Effect on VGSC in T1R3-silenced cells,[5],is lost
same,Change in VGSC,[5]; 2 μM,no change in VGSC was observed
same,Effect on VGSC in T1R3-silenced cells,[5]; listed as ab25-35,T1R3 silencing nullifies ab25-35's
same,Change in intracellular calcium,[6],an increase in intracellular calcium was observed
same,Microtubule fibrous structure (GFP-Tubulin),HEK Nav1.5 cells,disappearance of microtubule-like structures
same,Frequency of spontaneous action potentials,"SH-SY5Y cells [7]; 6.25 nM, NanoCharge method",an increase in spontaneous action potential frequency; also recorded: an increase in the frequency of spontaneous action potentials
same,Excitability / action potential threshold,"SH-SY5Y cells [7]; current clamp, 6-12 pA stimulation",increased the excitability of SH-SY5Y cells; also recorded: threshold for generating action potentials was lowered
same,Cell membrane capacitance and VGSC current,"Nav1.5; 12.5 nM, perforated patch-clamp",increase in cell membrane capacitance and VGSC current
same,Cell membrane capacitance and VGSC currents,"Nav1.5; 120 nM, perforated patch-clamp",increased
same,Cell membrane capacitance and VGSC currents,"Nav1.5; 240 nM, perforated patch-clamp",decreased to control levels
same,Effect on VGSC current,"Nav1.5; 1 μM, control HEK Nav1.5 cells",enhancing effect; also recorded: enhancement effect
same,Increase in VGSC current amplitude,Nav1.5; control without anti-T1R3 antibody pre-treatment,10-20%
same,VGSC current density (pA/pF),"Nav1.5; low concentration, perforated patch-clamp",current density of VGSC increased
"Aβ1-38: amyloid β peptide (Peptide Institute), Sequence No. 2",Effect on VGSC current,Nav1.6 [4],VGSC enhancement
same,Effect on VGSC current,Nav1.1,VGSC enhancement
same,Effect on VGSC in T1R3-silenced cells,[5],is lost
same,Change in intracellular calcium,[6],an increase in intracellular calcium was observed
same,Effect on VGSC inactivation,Nav1.5,delayed inactivation effect
same,Shift of steady-state inactivation (S-S) curve of VGSC,Nav1.5,shifted to the right; also recorded: shifting to the depolarizing side
same,VGSC current from prepulse/holding potential −80 mV,Nav1.5,enhancing currents; also recorded: significantly amplified
same,VGSC current from prepulse/holding potential −120 mV,Nav1.5,decreased; also recorded: slightly decreased
